Among the test systems are A498; CCRF-CEM; COLO 205; HCT-15; HOP-92; HT-29; K562; KM12; LOX IMVI; M14; SF-268; SK-MEL-28; SK-OV-3; SN12C; SNB-19; SR; NCI-H226; RXF 393.
What all share (test): inhibition of tumour cell growth, NCI panel, 48 h

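All cell lines were grown in 96-well plates and treated with compound for 48 hours. At the GI50, growth is halved.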 Active and inactive are the calls of the source. Rule as the data show it: active = GI50 up to about 1.1 µM and inactive = higher.

This is an account of results in ChEMBL document CHEMBL1201862, “PubChem BioAssay data set” (2004).

On to `C[Si](C)(C)/C=C\CCCN1C(=O)CCC1=O`, for which the GI50 in the test on A498 was > 100 µM (inactive); in the test on CCRF-CEM, 64.7 µM (inactive); in the test with COLO 205, > 100 µM (inactive); in the test on HCT-15, more than 100 µM; in the test on HOP-92 it was > 100 µM (inactive); in the test on HT-29, > 100 µM (inactive). The GI50 in the test with K562 was 60 µM (inactive); in the test with KM12, > 100 µM (inactive); in the test on LOX IMVI, > 100 µM (inactive); with M14, > 100 µM (inactive); in the test with SF-268, > 100 µM (inactive); in the test on SK-MEL-28 it was > 100 µM (inactive). Further, the GI50 in the test on SK-OV-3, with SN12C, in the test on SNB-19 and in the test with SR was > 100 µM (inactive) in each case.
For the molecule `O=C1c2ccc(O)c(O)c2C(=O)c2c(O)ccc(O)c21` [QUINALIZARIN], the GI50 with A498 was 26.3 µM (inactive); in the test on CCRF-CEM it was 20.2 µM (inactive); with COLO 205 it was 22.2 µM (inactive); in the test on HCT-15, 25.7 µM; in the test on HOP-92, 25.4 µM (inactive); in the test on HT-29, 35.2 µM (inactive). Besides, the GI50 was 26.5 µM (inactive) with K562; 30.9 µM (inactive) in the test on KM12; 18.2 µM (inactive) with LOX IMVI; 21.5 µM (inactive) in the test on M14; 22 µM (inactive) in the test on NCI-H226; 26.1 µM (inactive) in the test with RXF 393. Besides, the GI50 with SF-268 is 26.6 µM (inactive); with SK-MEL-28, 56 µM (inactive); in the test with SK-OV-3, 29.7 µM (inactive); with SN12C, 24 µM (inactive); with SNB-19 it was 29 µM (inactive); in the test with SR, 26.5 µM (inactive).
As to `CN(C)CC[N+]1=Nc2cccc3cccc(c23)N1`, the GI50 with A498 is 44.6 µM (inactive); in the test on CCRF-CEM, 27.8 µM (inactive); with COLO 205, 31.2 µM (inactive); in the test with HCT-15 it was 62.7 µM; in the test on HOP-92 it was 34.2 µM (inactive); with HT-29, 35.3 µM (inactive). Besides, the GI50 in the test with K562 was 26.4 µM (inactive); in the test on KM12 it was > 100 µM (inactive); with LOX IMVI, 24.1 µM (inactive); with M14, > 100 µM (inactive); in the test on NCI-H226, 71 µM (inactive); with SF-268, > 89.9 µM (inactive). Further, the GI50 in the test on SK-MEL-28 is > 100 µM (inactive); in the test on SK-OV-3 it was > 100 µM (inactive); in the test with SN12C it was 57.9 µM (inactive); in the test with SNB-19, > 49.5 µM (inactive); in the test on SR, 19.8 µM (inactive).
On to `Cc1cc([N+](=O)[O-])ccc1NC(=O)C(=O)C(C(=O)c1ccccc1-c1ccccc1)C1OC(=O)c2ccccc21` (centres undefined), for which the GI50 in the test with A498 was > 10 µM (inactive); in the test on CCRF-CEM, 22.9 µM (inactive); in the test on COLO 205, 20.8 µM (inactive); with HCT-15, 15.1 µM; in the test with HOP-92 it was 16.9 µM (inactive); with HT-29, 18.8 µM (inactive). Also, the GI50 is 25.4 µM (inactive) in the test on K562; 15 µM (inactive) in the test with KM12; 14 µM (inactive) in the test with M14; 12.2 µM (inactive) with NCI-H226; 4.85 µM (inactive) with RXF 393; 21.6 µM (inactive) in the test with SF-268. Moreover, the GI50 was 14.8 µM (inactive) with SK-MEL-28; 22.7 µM (inactive) in the test with SK-OV-3; 15.8 µM (inactive) in the test with SN12C; 3.44 µM (inactive) in the test with SNB-19; 16.4 µM (inactive) with SR.
With `CC1CC(=O)C(CC(=O)O)C1C(C(=O)C(=O)Nc1c(C#N)cccc1[N+](=O)[O-])[N+](=O)[O-]` (centres undefined), the GI50 in the test with A498 was > 100 µM (inactive); in the test with CCRF-CEM it was > 100 µM (inactive); with COLO 205, > 100 µM (inactive); in the test on HCT-15 it was more than 100 µM; with HOP-92, 82.2 µM (inactive); with HT-29, > 100 µM (inactive). Also, the GI50 with K562, in the test with KM12, in the test on LOX IMVI, in the test with M14, in the test with NCI-H226 and with RXF 393 was > 100 µM (inactive) in each case. The GI50 with SF-268, in the test with SK-MEL-28, in the test on SK-OV-3, in the test on SNB-19 and in the test on SR was > 100 µM (inactive) in each case.
With `COC(=O)C(=O)C(C(=O)C(=O)Nc1ccc(F)cc1)c1nc2ccc([N+](=O)[O-])cc2nc1O` (centres undefined), the GI50 with A498 is > 100 µM (inactive); in the test on CCRF-CEM, > 100 µM (inactive); in the test on COLO 205, > 100 µM (inactive); with HCT-15, more than 100 µM; with HOP-92, > 100 µM (inactive); in the test on HT-29, > 100 µM (inactive). In addition, the GI50 with K562, in the test with KM12, in the test on LOX IMVI, in the test on M14, in the test on NCI-H226 and in the test with RXF 393 was > 100 µM (inactive) throughout. Also, the GI50 in the test on SF-268, in the test on SK-MEL-28, in the test with SK-OV-3, in the test on SN12C, with SNB-19 and in the test on SR was > 100 µM (inactive) each time.
Consider `COc1cc(/C=C2\[C@H]3c4c(c(OC)c(C)c(OC)c4OC)C[C@@H](C(=O)N2Cc2ccccc2)N3C(=O)OC(C)C)c(OC)c(C)c1OC`, for which the GI50 with A498 is > 100 µM (inactive); in the test with CCRF-CEM it was 54 µM (inactive); with COLO 205 it was 53.7 µM (inactive); in the test on HOP-92, 8.34 µM (inactive); in the test with HT-29, 53.2 µM (inactive); in the test with K562 it was 40 µM (inactive). In addition, the GI50 with KM12 was 66.8 µM (inactive); in the test with LOX IMVI, > 100 µM (inactive); with M14, > 100 µM (inactive); in the test on NCI-H226, 6.08 µM (inactive); in the test on RXF 393, > 100 µM (inactive); in the test on SF-268 it was > 100 µM (inactive). Further, the GI50 in the test on SK-MEL-28 was > 100 µM (inactive); in the test on SK-OV-3 it was 2.52 µM (inactive); in the test with SN12C it was 88.7 µM (inactive); in the test on SR, 21.8 µM (inactive).
With `COc1cc(/C=N/N=C(\N)NO)cc(Cl)c1O`, the GI50 with A498 was 34.4 µM (inactive); with CCRF-CEM, 38.1 µM (inactive); with COLO 205, > 100 µM (inactive); with HCT-15 it was 66.8 µM; in the test with HOP-92, 57.8 µM (inactive); in the test with HT-29, > 100 µM (inactive). Besides, the GI50 in the test with K562 was 53.2 µM (inactive); in the test with KM12, 78 µM (inactive); in the test on LOX IMVI, 31 µM (inactive); in the test on M14, 33.4 µM (inactive); in the test on NCI-H226, 22.8 µM (inactive); in the test with RXF 393 it was 11.5 µM (inactive). Also, the GI50 in the test on SF-268 was 46.7 µM (inactive); in the test on SK-MEL-28 it was 20.7 µM (inactive); in the test on SK-OV-3 it was 55.8 µM (inactive); in the test with SN12C it was 48.8 µM (inactive); with SNB-19, > 100 µM (inactive); in the test with SR, 40.7 µM (inactive).
Regarding `Cc1ccccc1-n1c(=O)sc2c(=O)n(-c3ccccc3)c(=S)[nH]c21`, the GI50 in the test with A498 was > 100 µM (inactive); with CCRF-CEM, 47.3 µM (inactive); with COLO 205 it was > 100 µM (inactive); in the test on HCT-15, more than 100 µM; with HOP-92, > 100 µM (inactive); in the test on HT-29 it was > 100 µM (inactive). For the same molecule, the GI50 in the test on K562, with KM12, with M14, with NCI-H226, in the test with RXF 393 and in the test with SF-268 was > 100 µM (inactive) in each case. For the same molecule, the GI50 in the test with SK-MEL-28, in the test on SK-OV-3, in the test with SN12C, in the test on SNB-19 and with SR was > 100 µM (inactive) in each case.
On to `C=C1CC(CC)(CCN2C(=O)c3ccccc3C2=O)OC1=O` (centres undefined), for which the GI50 with A498 was 19.2 µM (inactive); in the test on CCRF-CEM it was 7.71 µM (inactive); in the test on COLO 205 it was 16.7 µM (inactive); in the test with HCT-15, 13.9 µM; in the test on HT-29, 14.1 µM (inactive); in the test on K562, 20.8 µM (inactive). Further, the GI50 in the test with KM12 is 21 µM (inactive); in the test with LOX IMVI it was 14.2 µM (inactive); in the test on M14 it was 10.9 µM (inactive); with NCI-H226, 13.8 µM (inactive); in the test with RXF 393, 15.5 µM (inactive); in the test with SF-268 it was 1.08 µM (active). Further, the GI50 with SN12C is 18.6 µM (inactive); with SNB-19, > 10 µM (inactive); in the test with SR, 27.4 µM (inactive).
In the case of `COC(=O)C(CC(=O)Nc1ccc(Cl)c(Cl)c1)C(=O)C(=O)Nc1ccc(Cl)c(Cl)c1` (centres undefined), the GI50 in the test with A498 is > 100 µM (inactive); in the test with CCRF-CEM, > 100 µM (inactive); with COLO 205 it was > 100 µM (inactive); in the test with HCT-15, more than 100 µM; with HOP-92, > 100 µM (inactive); in the test on HT-29, > 100 µM (inactive). The GI50 in the test on K562, in the test with KM12, in the test on LOX IMVI, in the test on M14, in the test on NCI-H226 and with RXF 393 was > 100 µM (inactive) throughout. Besides, the GI50 in the test on SF-268 was > 100 µM (inactive); with SK-MEL-28, > 100 µM (inactive); with SK-OV-3, > 100 µM (inactive); in the test on SN12C it was > 100 µM (inactive); in the test on SNB-19 it was > 100 µM (inactive); in the test with SR, 33.3 µM (inactive).
For `COC(=O)C(=O)C(C(=O)C(=O)Nc1ccc(OC)cc1[N+](=O)[O-])c1nc2ccc([N+](=O)[O-])cc2nc1O` (centres undefined), the GI50 was > 100 µM (inactive) in the test on A498; > 100 µM (inactive) with CCRF-CEM; > 100 µM (inactive) in the test on COLO 205; more than 100 µM with HCT-15; > 100 µM (inactive) in the test on HOP-92; > 100 µM (inactive) in the test on HT-29. The GI50 with K562, with KM12, in the test with LOX IMVI, with M14, in the test on NCI-H226 and in the test with RXF 393 was > 100 µM (inactive) throughout. Also, the GI50 in the test with SF-268, in the test on SK-OV-3, in the test with SN12C, with SNB-19 and in the test on SR was > 100 µM (inactive) each time.
